Test results reported in US20250230193A1, “CYCLIC COMPOUND HAVING SELECTIVE KRAS INHIBITORY EFFECT ON HRAS AND NRAS” (CHUGAI SEIYAKU KABUSHIKI KAISHA, priority 2022, published 2025).
*1 amine or outer side, *2 acyl side, *3 side chain or, on linkers, in order; H or OH if unused. Where a SMILES comes first, the peptide text is derived from it. Bridges are numbered along the chain shown (N, C = ends). [ ]: non-standard residue; d: D form. The star is where a group is joined. hPhe(3-Cl-4-CF3) = N[C@@H](CCc1ccc(C(F)(F)F)c(Cl)c1)C(=O)O; NPrPhe(4-CF3) = CCCN[C@@H](Cc1ccc(C(F)(F)F)cc1)C(=O)O; Pro(4-spirocPr) = O=C(O)[C@@H]1CC2(CC2)CN1; Abu(4,4,4-F3) = N[C@@H](CC(F)(F)F)C(=O)O; NMeGly(cPent) = CN[C@H](C(=O)O)C1CCCC1; X46 = CC1(C)CN([*:1])[C@@H]1C(=O)[*:2]; Gly(cPent) = N[C@H](C(=O)O)C1CCCC1; Hyp = O=C(O)[C@@H]1C[C@@H](O)CN1; Gly(cBu) = N[C@H](C(=O)O)C1CCC1; NMeD = CN[C@@H](CC(=O)O)C(=O)O; NMeL = CN[C@@H](CC(C)C)C(=O)O; X14 = N#CCN(CC(=O)[*:2])[*:1]; Morpholide = C1CN(*)CCO1; NMeA = CN[C@@H](C)C(=O)O; Ac5c = NC1(C(=O)O)CCCC1; Aze = O=C(O)[C@@H]1CCN1; NcPrGly = O=C(O)CNC1CC1; Abu = CC[C@H](N)C(=O)O; NPrGly = CCCNCC(=O)O; Sar = CNCC(=O)O

Assays:
[1] = molecular target: GDP-bound NRAS wild-type protein (Homo sapiens, UniProt P01111); assay: Binding to NRAS by surface plasmon resonance (SPR), Single Cycle Kinetics; conditions: KD ratio NRAS/KRAS, SPR
[2] = molecular target: GDP-bound HRAS wild-type protein (Homo sapiens, UniProt P01112); assay: Binding to HRAS by surface plasmon resonance (SPR), Single Cycle Kinetics; conditions: KD ratio HRAS/KRAS, SPR
GDP-bound HRAS wild-type protein, sequence (P01112 whole entry): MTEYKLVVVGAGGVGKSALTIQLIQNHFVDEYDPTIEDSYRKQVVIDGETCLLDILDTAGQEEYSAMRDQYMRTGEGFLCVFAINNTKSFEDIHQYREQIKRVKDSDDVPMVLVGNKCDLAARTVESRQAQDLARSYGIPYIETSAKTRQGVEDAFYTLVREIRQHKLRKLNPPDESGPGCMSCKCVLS

GDP-bound NRAS wild-type protein, sequence (P01111 whole entry): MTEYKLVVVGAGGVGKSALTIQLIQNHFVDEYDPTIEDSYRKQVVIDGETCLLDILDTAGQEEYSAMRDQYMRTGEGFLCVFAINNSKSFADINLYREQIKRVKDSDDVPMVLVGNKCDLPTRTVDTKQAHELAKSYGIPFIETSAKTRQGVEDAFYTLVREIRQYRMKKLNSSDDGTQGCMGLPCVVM

SMILES | NRAS/KRAS (ratio of KD for GDP-bound NRAS wild-type to KD for KRAS) [1] | HRAS/KRAS (ratio of KD for GDP-bound HRAS wild-type to KD for KRAS) [2]
CCCN1C(=O)CN(C)C(=O)CN(C)C(=O)[C@H]([C@@H](C)CC)NC(=O)[C@H](CC(C)C)N(C)C(=O)C[C@@H](C(=O)N2CCOCC2)N(C)C(=O)[C@H](C2CCCC2)N(C)C(=O)C2(CCCC2)NC(=O)CN(C)C(=O)[C@H](CCc2ccc(C(F)(F)F)c(Cl)c2)NC(=O)CN(C)C(=O)[C@@H]1Cc1ccc(C(F)(F)F)cc1 [PP0266] ([NMeL]I[Sar][Sar][NPrPhe(4-CF3)][Sar][hPhe(3-Cl-4-CF3)][Sar][Ac5c][NMeGly(cPent)][NMeD]-Morpholide; lactam N-11) | B (a compound having 3 or more and less than 10 is denoted as B) | C (A compound having a KD ratio of 0.1 or more and less than 3 is denoted as C)
CCCN1CC(=O)NC2(CCCC2)C(=O)N(C)[C@@H](C2CCCC2)C(=O)N(C)[C@H](C(=O)N2CCOCC2)CC(=O)N(C)[C@@H](CC(C)C)C(=O)N[C@@H]([C@@H](C)CC)C(=O)N(C)CC(=O)N(C)CC(=O)N(CCC)[C@@H](Cc2ccc(C(F)(F)F)cc2)C(=O)N(C)CC(=O)N[C@@H](CCc2ccc(C(F)(F)F)c(Cl)c2)C1=O [PP0267] ([NMeL]I[Sar][Sar][NPrPhe(4-CF3)][Sar][hPhe(3-Cl-4-CF3)][NPrGly][Ac5c][NMeGly(cPent)][NMeD]-Morpholide; lactam N-11) | B (a compound having 3 or more and less than 10 is denoted as B) | B (a compound having 3 or more and less than 10 is denoted as B)
CCCN1C(=O)[C@@H]2CCN2C(=O)[C@H](C)N(C)C(=O)[C@H](CC)NC(=O)[C@H](CC(C)C)N(C)C(=O)C[C@@H](C(=O)N2CCOCC2)N(C)C(=O)[C@H](C2CCCC2)N(C)C(=O)C2(CCCC2)NC(=O)[C@@H]2CCCN2C(=O)[C@H](CCc2ccc(C(F)(F)F)c(Cl)c2)NC(=O)CN(C)C(=O)[C@@H]1Cc1ccc(C(F)(F)F)cc1 [PP0269] ([NMeL][Abu][NMeA][Aze][NPrPhe(4-CF3)][Sar][hPhe(3-Cl-4-CF3)]P[Ac5c][NMeGly(cPent)][NMeD]-Morpholide; lactam N-11) | C (A compound having a KD ratio of 0.1 or more and less than 3 is denoted as C) | B (a compound having 3 or more and less than 10 is denoted as B)
CCCN1C(=O)[C@@H]2CCN2C(=O)[C@H](C)N(C)C(=O)[C@H](CC(F)(F)F)NC(=O)[C@H](CC(C)C)N(C)C(=O)C[C@@H](C(=O)N2CCOCC2)N(C)C(=O)[C@H](C2CCCC2)N(C)C(=O)C2(CCCC2)NC(=O)[C@@H]2CCCN2C(=O)[C@H](CCc2ccc(C(F)(F)F)c(Cl)c2)NC(=O)CN(C)C(=O)[C@@H]1Cc1ccc(C(F)(F)F)cc1 [PP0270] ([NMeL][Abu(4,4,4-F3)][NMeA][Aze][NPrPhe(4-CF3)][Sar][hPhe(3-Cl-4-CF3)]P[Ac5c][NMeGly(cPent)][NMeD]-Morpholide; lactam N-11) | C (A compound having a KD ratio of 0.1 or more and less than 3 is denoted as C) | B (a compound having 3 or more and less than 10 is denoted as B)
CCCN1C(=O)[C@@H]2CCN2C(=O)[C@H](C)N(C)C(=O)[C@H](C2CCC2)NC(=O)[C@H](CC(C)C)N(C)C(=O)C[C@@H](C(=O)N2CCOCC2)N(C)C(=O)[C@H](C2CCCC2)N(C)C(=O)C2(CCCC2)NC(=O)[C@@H]2CCCN2C(=O)[C@H](CCc2ccc(C(F)(F)F)c(Cl)c2)NC(=O)CN(C)C(=O)[C@@H]1Cc1ccc(C(F)(F)F)cc1 [PP0271] ([NMeL][Gly(cBu)][NMeA][Aze][NPrPhe(4-CF3)][Sar][hPhe(3-Cl-4-CF3)]P[Ac5c][NMeGly(cPent)][NMeD]-Morpholide; lactam N-11) | C (A compound having a KD ratio of 0.1 or more and less than 3 is denoted as C) | B (a compound having 3 or more and less than 10 is denoted as B)
CCCN1C(=O)[C@@H]2CCN2C(=O)[C@H](C)N(C)C(=O)[C@H](C2CCCC2)NC(=O)[C@H](CC(C)C)N(C)C(=O)C[C@@H](C(=O)N2CCOCC2)N(C)C(=O)[C@H](C2CCCC2)N(C)C(=O)C2(CCCC2)NC(=O)[C@@H]2CCCN2C(=O)[C@H](CCc2ccc(C(F)(F)F)c(Cl)c2)NC(=O)CN(C)C(=O)[C@@H]1Cc1ccc(C(F)(F)F)cc1 [PP0272] ([NMeL][Gly(cPent)][NMeA][Aze][NPrPhe(4-CF3)][Sar][hPhe(3-Cl-4-CF3)]P[Ac5c][NMeGly(cPent)][NMeD]-Morpholide; lactam N-11) | C (A compound having a KD ratio of 0.1 or more and less than 3 is denoted as C) | B (a compound having 3 or more and less than 10 is denoted as B)
CCCN1C(=O)[C@@H]2CCN2C(=O)CN(C2CC2)C(=O)[C@H]([C@@H](C)CC)NC(=O)[C@H](CC(C)C)N(C)C(=O)C[C@@H](C(=O)N2CCOCC2)N(C)C(=O)[C@H](C2CCCC2)N(C)C(=O)C2(CCCC2)NC(=O)[C@@H]2CCCN2C(=O)[C@H](CCc2ccc(C(F)(F)F)c(Cl)c2)NC(=O)CN(C)C(=O)[C@@H]1Cc1ccc(C(F)(F)F)cc1 [PP0273] ([NMeL]I[NcPrGly][Aze][NPrPhe(4-CF3)][Sar][hPhe(3-Cl-4-CF3)]P[Ac5c][NMeGly(cPent)][NMeD]-Morpholide; lactam N-11) | C (A compound having a KD ratio of 0.1 or more and less than 3 is denoted as C) | B (a compound having 3 or more and less than 10 is denoted as B)
CCCN1CC(=O)N2CC[C@H]2C(=O)N(CCC)[C@@H](Cc2ccc(C(F)(F)F)cc2)C(=O)N(C)CC(=O)N[C@@H](CCc2ccc(C(F)(F)F)c(Cl)c2)C(=O)N2CCC[C@H]2C(=O)NC2(CCCC2)C(=O)N(C)[C@@H](C2CCCC2)C(=O)N(C)[C@H](C(=O)N2CCOCC2)CC(=O)N(C)[C@@H](CC(C)C)C(=O)N[C@@H]([C@@H](C)CC)C1=O [PP0274] ([NMeL]I[NPrGly][Aze][NPrPhe(4-CF3)][Sar][hPhe(3-Cl-4-CF3)]P[Ac5c][NMeGly(cPent)][NMeD]-Morpholide; lactam N-11) | C (A compound having a KD ratio of 0.1 or more and less than 3 is denoted as C) | B (a compound having 3 or more and less than 10 is denoted as B)
CCCN1C(=O)[C@@H]2CCN2C(=O)CN(CC#N)C(=O)[C@H]([C@@H](C)CC)NC(=O)[C@H](CC(C)C)N(C)C(=O)C[C@@H](C(=O)N2CCOCC2)N(C)C(=O)[C@H](C2CCCC2)N(C)C(=O)C2(CCCC2)NC(=O)[C@@H]2CCCN2C(=O)[C@H](CCc2ccc(C(F)(F)F)c(Cl)c2)NC(=O)CN(C)C(=O)[C@@H]1Cc1ccc(C(F)(F)F)cc1 [PP0275] ([NMeL]I[X14][Aze][NPrPhe(4-CF3)][Sar][hPhe(3-Cl-4-CF3)]P[Ac5c][NMeGly(cPent)][NMeD]-Morpholide; lactam N-11) | C (A compound having a KD ratio of 0.1 or more and less than 3 is denoted as C) | C (A compound having a KD ratio of 0.1 or more and less than 3 is denoted as C)
CCCN1C(=O)[C@@H]2CCN2C(=O)[C@H]2N(CC2(C)C)C(=O)[C@H]([C@@H](C)CC)NC(=O)[C@H](CC(C)C)N(C)C(=O)C[C@@H](C(=O)N2CCOCC2)N(C)C(=O)[C@H](C2CCCC2)N(C)C(=O)C2(CCCC2)NC(=O)[C@@H]2CCCN2C(=O)[C@H](CCc2ccc(C(F)(F)F)c(Cl)c2)NC(=O)CN(C)C(=O)[C@@H]1Cc1ccc(C(F)(F)F)cc1 [PP0277] ([NMeL]I[X46][Aze][NPrPhe(4-CF3)][Sar][hPhe(3-Cl-4-CF3)]P[Ac5c][NMeGly(cPent)][NMeD]-Morpholide; lactam N-11) | C (A compound having a KD ratio of 0.1 or more and less than 3 is denoted as C) | C (A compound having a KD ratio of 0.1 or more and less than 3 is denoted as C)
CCCN1C(=O)[C@@H]2CCN2C(=O)[C@H](C)N(C)C(=O)[C@H]([C@@H](C)CC)NC(=O)[C@H](CC(C)C)N(C)C(=O)C[C@@H](C(=O)N2CCOCC2)N(C)C(=O)[C@H](C2CCCC2)N(C)C(=O)C2(CCCC2)NC(=O)[C@@H]2CCN2C(=O)[C@H](CCc2ccc(C(F)(F)F)c(Cl)c2)NC(=O)CN(C)C(=O)[C@@H]1Cc1ccc(C(F)(F)F)cc1 [PP0281] ([NMeL]I[NMeA][Aze][NPrPhe(4-CF3)][Sar][hPhe(3-Cl-4-CF3)][Aze][Ac5c][NMeGly(cPent)][NMeD]-Morpholide; lactam N-11) | C (A compound having a KD ratio of 0.1 or more and less than 3 is denoted as C) | C (A compound having a KD ratio of 0.1 or more and less than 3 is denoted as C)
CCCN1C(=O)[C@@H]2CCN2C(=O)[C@H](C)N(C)C(=O)[C@H]([C@@H](C)CC)NC(=O)[C@H](CC(C)C)N(C)C(=O)C[C@@H](C(=O)N2CCOCC2)N(C)C(=O)[C@H](C2CCCC2)N(C)C(=O)C2(CCCC2)NC(=O)[C@@H]2CC3(CC3)CN2C(=O)[C@H](CCc2ccc(C(F)(F)F)c(Cl)c2)NC(=O)CN(C)C(=O)[C@@H]1Cc1ccc(C(F)(F)F)cc1 [PP0282] ([NMeL]I[NMeA][Aze][NPrPhe(4-CF3)][Sar][hPhe(3-Cl-4-CF3)][Pro(4-spirocPr)][Ac5c][NMeGly(cPent)][NMeD]-Morpholide; lactam N-11) | C (A compound having a KD ratio of 0.1 or more and less than 3 is denoted as C) | C (A compound having a KD ratio of 0.1 or more and less than 3 is denoted as C)
CCCN1C(=O)[C@@H]2CCN2C(=O)[C@H](C)N(C)C(=O)[C@H]([C@@H](C)CC)NC(=O)[C@H](CC(C)C)N(C)C(=O)C[C@@H](C(=O)N2CCOCC2)N(C)C(=O)[C@H](C2CCCC2)N(C)C(=O)C2(CCCC2)NC(=O)[C@@H]2C[C@@H](OC)CN2C(=O)[C@H](CCc2ccc(C(F)(F)F)c(Cl)c2)NC(=O)CN(C)C(=O)[C@@H]1Cc1ccc(C(F)(F)F)cc1 [PP0283] ([NMeL]I[NMeA][Aze][NPrPhe(4-CF3)][Sar][hPhe(3-Cl-4-CF3)][Hyp](Me)[Ac5c][NMeGly(cPent)][NMeD]-Morpholide; lactam N-11) | C (A compound having a KD ratio of 0.1 or more and less than 3 is denoted as C) | C (A compound having a KD ratio of 0.1 or more and less than 3 is denoted as C)
